The results in this text go back to PubChem BioAssay AID330 (DTP/NCI, 2004).

“And” between values parts separate entries of the source, which are not always exact repeats. Equal values may be shown once. Inconclusive results and toxic doses are left out.

This assay concerns P388 leukemia ip, CD2F1 mice, survival T/C. Briefly: NCI In Vivo Anticancer Drug Screen. Data for tumor model P388 Leukemia (intraperitoneal) in CD2F1 (CDF1) mice. Particulars: endpoint: median survival time, higher = longer survival. In a few lines:
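Mice carrying the transplanted tumor received test compound or vehicle. Survival was recorded in each group, and the value is the treated-group measurement divided by that of the vehicle-treated control group.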

[1] abbreviates: dose: 100.0 mg/kg/injection, schedule: Q01DX001 (ip), vehicle: saline with Tween-80.
Where [2] appears, read: dose: 50.0 mg/kg/injection, schedule: Q01DX009 (ip), vehicle: saline with Tween-80.
The mark [3] stands for this setting: dose: 100.0 mg/kg/injection, schedule: Q01DX009 (ip), vehicle: saline with Tween-80.
Where [4] appears, read: dose: 200.0 mg/kg/injection, schedule: Q01DX009 (ip), vehicle: saline with Tween-80.
Setting [5] is: dose: 60.0 mg/kg/injection, schedule: Q01DX005 (ip), vehicle: saline.
[6] abbreviates: dose: 120.0 mg/kg/injection, schedule: Q01DX005 (ip), vehicle: saline.
The mark [7] stands for this setting: dose: 240.0 mg/kg/injection, schedule: Q01DX005 (ip), vehicle: saline.
Where [8] appears, read: dose: 50.0 mg/kg/injection, schedule: Q01DX009 (ip), vehicle: saline.
The mark [9] stands for this setting: dose: 60.0 mg/kg/injection, schedule: Q01DX005 (ip), vehicle: saline with Tween-80.
Where [10] appears, read: dose: 120.0 mg/kg/injection, schedule: Q01DX005 (ip), vehicle: saline with Tween-80.
The mark [11] stands for this setting: dose: 240.0 mg/kg/injection, schedule: Q01DX005 (ip), vehicle: saline with Tween-80.
Where [12] appears, read: dose: 100.0 mg/kg/injection, schedule: Q01DX001 (ip), vehicle: Klucel (hydroxypropylcellulose) (HPC).
The mark [13] stands for this setting: dose: 200.0 mg/kg/injection, schedule: Q01DX001 (ip), vehicle: Klucel (hydroxypropylcellulose) (HPC).
[14] abbreviates: dose: 400.0 mg/kg/injection, schedule: Q01DX001 (ip), vehicle: Klucel (hydroxypropylcellulose) (HPC).
Where [15] appears, read: dose: 50.0 mg/kg/injection, schedule: Q01DX005 (ip), vehicle: saline with Tween-80.
Where [16] appears, read: dose: 100.0 mg/kg/injection, schedule: Q01DX005 (ip), vehicle: saline with Tween-80.
Where [17] appears, read: dose: 50.0 mg/kg/injection, schedule: Q01DX005 (ip), vehicle: Klucel (hydroxypropylcellulose) (HPC).
Setting [18] is: dose: 100.0 mg/kg/injection, schedule: Q01DX005 (ip), vehicle: Klucel (hydroxypropylcellulose) (HPC).
Setting [19] is: dose: 200.0 mg/kg/injection, schedule: Q01DX005 (ip), vehicle: Klucel (hydroxypropylcellulose) (HPC).
Where [20] appears, read: dose: 100.0 mg/kg/injection, schedule: Q04DX003 (ip), vehicle: saline.
Where [21] appears, read: dose: 200.0 mg/kg/injection, schedule: Q04DX003 (ip), vehicle: saline.
Where [22] appears, read: dose: 400.0 mg/kg/injection, schedule: Q04DX003 (ip), vehicle: saline.

With `CC(C)OC1CC(C)(O)Cc2cc3c(c(O)c21)C(=O)c1c(O)cc2c(c1C3=O)OC1OC2(C)C(O)C(N(C)C)C1O` (stereo unspecified), the T/C by setting is: (dose: 2.0 mg/kg/injection, schedule: Q01DX009 (ip), vehicle: other) 101 % of control; (dose: 4.0 mg/kg/injection, schedule: Q01DX009 (ip), vehicle: other) 120 % of control; (dose: 8.0 mg/kg/injection, schedule: Q01DX009 (ip), vehicle: other) 106 % of control; (dose: 16.0 mg/kg/injection, schedule: Q01DX009 (ip), vehicle: other) 87 % of control.

With `CCCCCCCCCC(C)CCCCC` (stereo unspecified), the T/C runs as follows: (dose: 25.0 mg/kg/injection, schedule: Q01DX001 (ip), vehicle: saline with Tween-80) 90 % of control; (dose: 50.0 mg/kg/injection, schedule: Q01DX001 (ip), vehicle: saline with Tween-80) 100 % of control; under setting [1], 100 % of control.

Consider `CSc1cccc(NC(=O)Oc2ccc(Br)cc2)c1`, for which the T/C was 91 % of control under setting [2], 93 % of control under setting [3] and 101 % of control under setting [4].

`CC(=O)N1c2ccccc2Sc2ccc3ccccc3c21`: the T/C was 93 % of control under setting [2], 100 % of control under setting [3] and 99 % of control under setting [4].

For `OCC1=CC(O)C2C=COC(C3OC(CO)C(O)C(O)C3O)C12` (stereo unspecified), the T/C by setting is: under setting [5], 103 % of control; under setting [6], 102 % of control; under setting [7], 100 % of control.

Consider `C/C(=N\N)C1C(=O)c2ccccc2C1=O`, for which the T/C (dose: 6.25 mg/kg/injection, schedule: Q01DX009 (ip), vehicle: saline) was 100 % of control; the T/C (dose: 12.5 mg/kg/injection, schedule: Q01DX009 (ip), vehicle: saline) was 105 % of control; the T/C (dose: 25.0 mg/kg/injection, schedule: Q01DX009 (ip), vehicle: saline) is 101 % of control and 86 % of control; the T/C under setting [8] was 98 % of control.

With `O=c1[nH]c(=O)c2nc(-c3ccccn3)cnc2[nH]1`, the T/C by setting is: (dose: 50.0 mg/kg/injection, schedule: Q01DX001 (ip), vehicle: saline) 101 % of control; (dose: 100.0 mg/kg/injection, schedule: Q01DX001 (ip), vehicle: saline) 90 % of control; (dose: 200.0 mg/kg/injection, schedule: Q01DX001 (ip), vehicle: saline) 92 % of control.

In the case of `COc1ccc(C2=C/C(=C/c3ccc(N(CCC#N)CCC#N)cc3)C(=O)O2)cc1`, the T/C reads like this: under setting [1], 97 % of control; (dose: 200.0 mg/kg/injection, schedule: Q01DX001 (ip), vehicle: saline with Tween-80) 95 % of control; (dose: 400.0 mg/kg/injection, schedule: Q01DX001 (ip), vehicle: saline with Tween-80) 92 % of control.

As to `CCOC(=O)NC(=S)Nc1cccs1`, the T/C was 91 % of control under setting [2], 100 % of control under setting [3] and 101 % of control under setting [4].

For `O=C(O)/C=C\c1c[nH]c2ccccc12`, the T/C was 94 % of control under setting [9], 94 % of control under setting [10] and 88 % of control under setting [11].

Take `COc1cc(Cc2nnc(N)[nH]c2=O)cc(OC)c1OC`: the T/C was 97 % of control (dose: 6.25 mg/kg/injection, schedule: Q01DX009 (ip), vehicle: saline with Tween-80); 91 % of control (dose: 12.5 mg/kg/injection, schedule: Q01DX009 (ip), vehicle: saline with Tween-80); 116 % of control under setting [12]; 89 % of control under setting [13]; 100 % of control under setting [14].

As to `CCOC(=O)N1CCc2cc3c(cc2C1Cc1ccc(OC)c(OC)c1CCl)OCO3` (stereo unspecified), the T/C is, setting by setting: under setting [15], 100 % of control; under setting [16], 92 % of control.

Take `CC1CC(O)C2C1CC1CCC2(C)OC1(C)C` (stereo unspecified): the T/C is, setting by setting: under setting [3], 105 % of control; under setting [4], 105 % of control; (dose: 400.0 mg/kg/injection, schedule: Q01DX009 (ip), vehicle: saline with Tween-80) 100 % of control.

As to `O=C(O)C(Cc1ccc(O)cc1)NC(c1ccccc1)P(=O)(O)O` (stereo unspecified), the T/C by setting is: under setting [9], 108 % of control; under setting [10], 98 % of control; under setting [11], 99 % of control.

`CCNc1nc(NC(C)C)nc(-c2ccncc2)n1`: the T/C runs as follows: (dose: 12.5 mg/kg/injection, schedule: Q01DX005 (ip), vehicle: Klucel (hydroxypropylcellulose) (HPC)) 108 % of control; (dose: 25.0 mg/kg/injection, schedule: Q01DX005 (ip), vehicle: Klucel (hydroxypropylcellulose) (HPC)) 96 % of control; under setting [17], 101 % of control; under setting [18], 108 % of control.

Turning to `COc1ccccc1P(=O)(CCP(=O)(c1ccccc1)c1ccccc1OC)c1ccccc1` (stereo unspecified), the T/C was 103 % of control under setting [17], 97 % of control under setting [18] and 91 % of control under setting [19].

Consider `ClC1(Cl)CC1[Se]c1ccccc1` (stereo unspecified), for which the T/C runs as follows: under setting [8], 100 % of control; (dose: 100.0 mg/kg/injection, schedule: Q01DX009 (ip), vehicle: saline) 102 % of control; (dose: 200.0 mg/kg/injection, schedule: Q01DX009 (ip), vehicle: saline) 99 % of control.

Regarding `O/N=C/c1ccccn1`, the T/C was 92 % of control under setting [5], 101 % of control under setting [6] and 100 % of control under setting [7].

For the compound `O=C1N(Cc2ccccc2)[C@H]2CS(=O)(=O)C[C@@H]2N1Cc1ccccc1`, the T/C is 87 % of control under setting [15]; 92 % of control under setting [16]; 86 % of control (dose: 200.0 mg/kg/injection, schedule: Q01DX005 (ip), vehicle: saline with Tween-80).

On to `CCCCNC1c2ccccc2CCC1O` (stereo unspecified), for which the T/C reads like this: under setting [12], 97 % of control; (dose: 100.0 mg/kg/injection, schedule: Q04DX002 (ip), vehicle: Klucel (hydroxypropylcellulose) (HPC)) 118 % of control; under setting [13], 99 % of control.

`CCCOC(=O)C1(N)CCCC1`: the T/C runs as follows: under setting [20], 100 % of control; under setting [21], 113 % of control; under setting [22], 118 % of control.

`CC1=NCC(=O)O1`: the T/C is 98 % of control under setting [17], 98 % of control under setting [18] and 102 % of control under setting [19].

For `C=COc1ccccc1C1=NC(C(C)(C)C)(C(C)(C)C)P(OC)(OC)(OC)O1`, the T/C is, setting by setting: under setting [20], 102 % of control; under setting [21], 108 % of control; under setting [22], 100 % of control.

With `O=[N+]([O-])c1ccc(C(Cl)C2(Br)C=c3ccccc3=C2)cc1` (stereo unspecified), the T/C runs as follows: (dose: 100.0 mg/kg/injection, schedule: Q04DX003 (ip), vehicle: Klucel (hydroxypropylcellulose) (HPC)) 100 % of control; (dose: 200.0 mg/kg/injection, schedule: Q04DX003 (ip), vehicle: Klucel (hydroxypropylcellulose) (HPC)) 100 % of control; (dose: 400.0 mg/kg/injection, schedule: Q04DX003 (ip), vehicle: Klucel (hydroxypropylcellulose) (HPC)) 95 % of control.

As for `CCOc1ccc(-n2c(=O)c(N=Nc3ccccc3OC)c(O)n(-c3ccccc3Cl)c2=S)cc1`, the T/C is 102 % of control under setting [12], 101 % of control under setting [13] and 105 % of control under setting [14].

Consider `CC(=O)N(C)N=NCCCl`, for which the T/C is 157 % of control (dose: 13.12 mg/kg/injection, schedule: Q01DX005 (ip), vehicle: saline with Tween-80); 217 % of control (dose: 26.15 mg/kg/injection, schedule: Q01DX005 (ip), vehicle: saline with Tween-80); 257 % of control (dose: 52.5 mg/kg/injection, schedule: Q01DX005 (ip), vehicle: saline with Tween-80); 171 % of control (dose: 105.0 mg/kg/injection, schedule: Q01DX005 (ip), vehicle: saline with Tween-80).

In the case of `C1OC2OCC1O2`, the T/C by setting is: under setting [2], 87 % of control; under setting [3], 93 % of control; under setting [4], 105 % of control.
